# Data taken from patent US5762956A, “Transdermal contraceptive delivery system and process” (priority 1996, dated 1998).
# Key:
# [1] = In-vitro drug permeation study, human cadaver skin, Valia-Chien cell, HPLC; assay type: in vitro ADME; conditions: from 10 cm^2 TCDS patch of Example 1, steady state
# Description: The samples taken from the receptor compartment of the diffusion cell were analyzed by high performance liquid chromatography.
# The skin permeation flux of each drug was subsequently calculated from the steady state of the permeation profile.
# [2] = Phase I residual drug assay of used patches (daily delivery rate); conditions: for relationship between daily delivery rate and dosage: 1, 2 or 3 × 10 cm^2 TCDS patches; for Daily Delivery Rate: ± S.D.
# From the text: In this study, healthy female subjects of child-bearing age were randomly divided into 4 groups in a 4-way parallel study design (See Table 5). The study consists of three menstrual cycles which are sequentially arranged as pre-treatment, treatment and post-treatment cycles. During the pre-treatment cycle, the 48 recruited subjects were given placebo TCDS patches to study the wearability (including skin irritation and adhesion tests) while they were being screened against the inclusion/exclusion criteria specified in the clinical protocol. During the treatment cycle, each of the […] in Group A, B and C received weekly application of 1, 2 or 3 pieces of 10 cm^2 TCDS patches, respectively, while each subject in Group D received one oral contraceptive pill (each pill contains 150 μg of levonorgestrel and 35 μg of ethynyl estradiol) per day as reference.
# [3] = Phase I serum levonorgestrel by radioimmunoassay; assay type: in vivo, human (fertile Chinese women); conditions: Groups B and C, three weeks of patch application
# Description: Blood samples obtained from these three cycles of studies were assayed by radioimmunoassay (RIA) methods for their serum concentration of levonorgestrel, estradiol, progesterone, luteinizing hormone (LH) and follicle stimulating hormone (FSH). Ultrasonic measurement of follicle size and endometrium thickness measurement were also performed during the mid-treatment cycle. Bioavailability of levonorgestrel was assessed by the serum levonorgestrel profile of each subject group. Suppression of post-ovulatory progesterone peak and mid-cycle surges of LH and FSH provided hormonal indications of ovulation inhibition.
# [4] = system: Rabbit Skin; test: Residual drug assay of patches from dermal toxicity test (daily delivery rate into rabbit); conditions: for in vivo delivery rate compared with in vitro rate: rabbit vs in vitro; for Daily Delivery Rate: rabbit, N = 6, ± S.D.
# Description: The test consists of an one-week primary skin irritation study on six rabbits followed by histopathological examination on each patch application. Both medicated and placebo patches of this TCDS formulation were tested on either intact or abraded skin. Based on the Draize Scale Scoring Method, the primary dermal irritation index (PDII) was given to each patch application site at 24 and 72 hours following the 7 days application period. The patches used in the primary skin irritation test were retrieved for residual drug assay to determine the amount of drugs delivered into the test animal.
Structure (SMILES),skin permeation flux / amount delivered [1],relationship between daily delivery rate and dosage [2],serum concentration of levonorgestrel versus target concentration [3],in vivo delivery rate compared with in vitro rate [4],Daily Delivery Rate ([2]; Group A: 1 × 10 cm^2 patch/week) [µg/day],Daily Delivery Rate ([2]; Group B: 2 × 10 cm^2 patch/week) [µg/day],Daily Delivery Rate ([2]; Group C: 3 × 10 cm^2 patch/week) [µg/day],Daily Delivery Rate ([4]; abraded skin) [µg/day],Daily Delivery Rate ([4]; intact skin) [µg/day]
"C#C[C@]1(O)CC[C@H]2[C@@H]3CCC4=CC(=O)CC[C@@H]4[C@H]3CC[C@@]21CC [Levonorgestrel, levonorgestrel]",about 60.0±9.42 μg/day,linearly proportional to the increase in dosage of TCDS patches,above the target concentration throughout the three weeks of patch application,seems to correlate very well with the in vitro delivery rate,,,,,
C[C@]12CC[C@@H]3c4ccc(O)cc4CC[C@H]3[C@@H]1CC[C@@H]2O [17-beta-estradiol],~28.8 µg/day,established only for the dosages of the first and second pieces of 10 cm^2 TCDS patches,,higher than skin permeation rate obtained in the in vitro study,42.1 ± 16.32,89.7 ± 28.4,110.4 ± 28.61,35.1 ± 26.70,37.0 ± 19.77
